Source: paper PMC8395040 (International Journal of Molecular Sciences, 2021)

Tests used:
[1] = test system: HEK293; assay: CFSE proliferation assay, HEK293; assay type: cell-based, human; settings: 19 µM, 48 h
Experimental: HT29 and HEK293 cells were resuspended at 1 × 10^6/mL in DMEM F12 without FBS. A 5 mM CFSE stock solution carboxyfluorescein diacetate succinimidyl ester (Cell Proliferation Kit, Life Technologies, Carlsbad, CA, USA) in DMSO was added to a final concentration of 5 µM and incubated at 37 °C for 15 min protected from light. At the end of the incubation period, the cells were immediately washed twice in cold PBS 1X/no-FBS. Cells were washed three times in PBS 1×/10%-FBS and resuspended in the same medium and plated in 12-well plates at a density of 1 × 10^5 cells/200 µL medium and grown overnight at 37 °C in a 5% CO2 humidified atmosphere. […] The cells were collected and then analysed by flow cytometry (BD; FACScanto II, Mountain View, CA, USA) and data were processed using FCS Express v6 software. Two independent biological replicates were performed.

[2] = test system: HT29; assay: Cell cycle analysis (PI, flow cytometry), HT29; assay type: cell-based, human; settings: 19 µM, 24 h, compared to the control
Experimental: (§1) HT29 and HEK293 cells were plated in 6-well plates at a density of 2.0 × 10^5 cells/1.5 mL/well and grown overnight at 37 °C in a 5% CO2 humidified atmosphere. […] Aliquots of cells were collected, pelleted, washed, and fixed with ethanol (70% v/v) for at least 30 min at 4 °C. Cells were resuspended twice in PBS and, after centrifugation and elimination of the supernatant, they were finally resuspended in a PBS solution containing propidium iodide (PI; […], Invitrogen), RNase A ([…], Invitrogen). After a final incubation for 1 h in the dark at 37 °C, the PI signal was measured using a FACS Canto II Flow-cytometer (BD; Mountain View, CA) with a 488 nm excitation laser, captured and FACS DIVA was used as the acquisition software. The percentage of cells in each phase was analysed using the FCS Express v6 software. Two independent biological replicates were performed.

[3] = test system: HT29; assay: Colony formation assay, HT29; assay type: cell-based, human; settings: 5 µM, 14 d
Experimental: HT29, HCT116, H1975 and HEK293 cells were seeded in a 6-well plate (1 × 10^4 cells per well) and incubated overnight in DMEM F12 supplemented with 10% FBS. […] After 72 h, the medium was replaced by fresh medium without stimuli, and cells were incubated for an additional 14 d to permit colony formation. The cells were fixed during 30 min with PFA 4% (v/v), washed and stained for 30 min at RT with a 5% solution of violet crystal for final colony counting. Three independent replicates were performed.

[4] = test system: GLI1-responsive luciferase reporter in HCT116 cells; assay: HH-dependent GLI luciferase reporter assay in HCT116; assay type: cell-based, human; settings: 24 h, 4s 1.5 µM, vismodegib 1 µM; for activation induced by the agonist purmorphamine: purmorphamine 20 µM
Experimental: Luciferase and renilla activity were assayed with a dual-luciferase assay system according to the manufacturer’s instructions (Cignal Reporter Gli-luciferase, ADN, Qiagen, Hilden, Germany). Results were expressed as luciferase/renilla ratios and represent the mean of triplicate values in one assay.
Supplemental Figure S2: Luciferase reporter activity dependent on the Hh pathway.
This assay was performed in HCT116 cells stably transformed with a Gli responsive luciferase reporter gene and a renilla luciferase gene (normalization control), treated for 24 […]
renilla activity were assayed with the dual-luciferase assay system Cignal Reporter Gli - luciferase (ADN, Qiagen). Results are expressed as luciferase/renilla activity ratios and represent the mean of triplicate values from one assay. […]
(1 picture or pasted object on this page, not shown here)

[5] = test system: pancreatic cancer cells; parameters: method as in PMID 28490735; settings: cited from earlier work
[6] = test system: HEK293; assay: Cell cycle analysis (PI, flow cytometry), HEK293; assay type: cell-based, human; settings: 19 µM, 24 h
Experimental: as §1

[7] = test system: cancer cell lines (HH-dependent and HH-independent); assay: Annexin V-FITC/PI dose-response, cancer cell lines; assay type: cell-based, human; settings: 1.5–50 µM, 72 h
Experimental: Apoptosis plays a major role in maintaining the homeostasis of cells. Cellular shrinkage and DNA fragmentation at the molecular level are characteristics acquired during apoptosis. Therefore, we performed flow cytometric analysis to determine if 4s could induce apoptosis in tumour cell lines. To this end, 4s-treated cells were stained with Annexin V-FITC and/or PI and analysed by flow cytometry. Dose–response effects were assessed using 4s at concentrations under 50 µM (1.5, 3.0, 6.25, 19, 25 and 50 µM) for 72 h.
Supplemental Figure S1: 4s triggers apoptosis in various cancer cell lines. A)
Dose-response curves are shown for four neoplastic cancer cell lines and HEK293 cells as a control. Cells were treated with 4s […]
stained with annexin V-FITC and propidium iodide (PI) and analyzed by flow cytometry.
Results are presented as the mean ± SD of three independent experiments. (***) p <
0.0001 vs. control. Data were analyzed with a non-parametric t-test. B) Representative dot plot of HT29 cells untreated (control) or treated for 3 h with 4s (19 µM ). […]

[8] = target: T1, human WT SMO (Homo sapiens, UniProt Q99835); assay: BODIPY-cyclopamine displacement assay, WT SMO; settings: HEK293T transfected with WT SMO, BC 5 nM; read-out: IC50 for binding to WT SMO (BC displacement)
T1 construct: Myc-DDK; expressed in transfected cells; host or cells: HEK293T
Experimental: (§2) HEK293T cells were transfected with genes encoding human WT SMO tagged with Myc-DDK or human SMO D473H mutant tagged with Myc. Cells were washed in PBS supplemented with 0.5% FBS, fixed in 4% paraformaldehyde in PBS for 10 min, and incubated for 6 h at 37 °C in the same medium supplemented with BODIPY-cyclopamine (5 nM), with and without 4s at different concentrations ([…]). The cells were permeabilised with 0.2% Triton X-100 (Sigma, St. Louis, MO, USA). Dako Fluorescent Mounting solution (Dako, Carpinteria, CA, USA) was used as mounting medium and the Hoechst reagent for staining of cell nuclei. BODIPY (green) and Hoechst (blue) signals were analysed in three representative fields per coverslip (×20 magnification). Data were expressed as the percentage of BC incorporation observed with BC alone.

[9] = target: T2, human SMO D473H mutant (Homo sapiens, UniProt Q99835, D473H); assay: BODIPY-cyclopamine displacement assay, SMO D473H; assay type: binding
T2 construct: Myc; expressed in transfected cells; host or cells: HEK293T
Experimental: as §2

[10] = Solubility in water; assay type: physicochemical

T2 sequence (Q99835 28-787 D473H): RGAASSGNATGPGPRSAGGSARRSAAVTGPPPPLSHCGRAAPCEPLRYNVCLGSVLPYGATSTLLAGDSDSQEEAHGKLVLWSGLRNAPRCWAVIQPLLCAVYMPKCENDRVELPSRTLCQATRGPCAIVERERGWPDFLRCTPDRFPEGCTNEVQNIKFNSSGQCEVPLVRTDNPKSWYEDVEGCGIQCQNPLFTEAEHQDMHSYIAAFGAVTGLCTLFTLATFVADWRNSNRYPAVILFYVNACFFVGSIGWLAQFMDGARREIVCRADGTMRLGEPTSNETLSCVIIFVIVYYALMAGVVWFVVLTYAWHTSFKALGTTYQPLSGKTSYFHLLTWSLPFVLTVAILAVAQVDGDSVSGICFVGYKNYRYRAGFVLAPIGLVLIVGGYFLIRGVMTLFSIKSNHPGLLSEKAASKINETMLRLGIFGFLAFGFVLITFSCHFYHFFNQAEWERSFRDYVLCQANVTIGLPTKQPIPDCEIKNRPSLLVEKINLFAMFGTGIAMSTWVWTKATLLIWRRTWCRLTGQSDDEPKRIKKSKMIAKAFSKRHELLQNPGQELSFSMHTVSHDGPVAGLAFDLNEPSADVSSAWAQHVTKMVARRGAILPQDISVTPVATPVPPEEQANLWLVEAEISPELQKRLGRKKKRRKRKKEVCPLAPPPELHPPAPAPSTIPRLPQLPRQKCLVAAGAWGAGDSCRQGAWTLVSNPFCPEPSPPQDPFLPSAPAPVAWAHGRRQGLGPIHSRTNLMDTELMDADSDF
T1 sequence (Q99835 28-787): as the sequence (Q99835 28-787 D473H) above, with H446D counted along it

IC50 [8] [nM] | binding to the SMO-D473H mutant receptor ([9]; HEK293T expressing SMO-D473H, up to 5 µM) | decrease of binding affinity with SMO-D473H mutant compared to WT SMO ([9]; suggested, no IC50 determinable) | solubility in water [10] | Compound | HEK293 cell proliferation (CFSE) [1] | increase of the G1/G0 phase [2] [%] | colony formation HT-29 [3] | basal GLI1 transcription activity [4] | activation induced by the agonist purmorphamine [4] | concentration inducing apoptosis in pancreatic cancer cells [5] | decrease in S phase [2] [%] | changes in cell cycle, HEK293 [6] | induction of apoptosis [7] | concentration above which toxic to SMO-D473H cells ([9]; HEK293T expressing SMO-D473H)
 |  |  |  | CS(=O)(=O)c1ccc(C(=O)Nc2ccc(Cl)c(-c3ccccn3)c2)c(Cl)c1 [Vismodegib, reference compound] | less effect on reducing proliferation than 4s | 10 | less effective than 4s | did not affect basal GLI1 transcription activity | effectively reduced the activation | greater than 100 µM |  |  |  | 
950 | dose-dependent inhibition of binding | about 25% | poor | CCCCCCn1cnc2c(-c3ccc(OC(F)(F)F)cc3)nc(N3CCN(c4ccncc4)CC3)nc21 [Compound 4s, 9-Hexyl-2-(4-(pyridin-4-yl)piperazin-1-yl)-6-(4-(trifluoromethoxy)phenyl)-9H-purine] | no effect | 24 |  | did not affect basal GLI1 transcription activity | effectively reduced the activation |  | 12 | did not observe any changes | induced apoptosis in a dose-dependent manner | above 5 µM
